Laboratory results published in patent US4900729A, “Thieno-1,4-diazepines” (Boehringer Ingelheim KG, priority 1986, dated 1990).

Test system: human thrombocytes (PAF-induced aggregation)
Assay: inhibition of PAF-induced aggregation of human thrombocytes in vitro
Type: cell-based
Details: Homo sapiens, PAF-induced aggregation, read-out: IC50 (concentration for a 50% inhibition of aggregation)
Experimental: The PAF-antagonistic activity of some compounds of formula I was investigated by means of the inhibition of blood platelet aggregation in vitro and the antagonising of the PAF-induced bronchoconstriction in anaesthetised guinea pigs, the lowering of blood pressure in anaesthetised rats and skin wheals in rats. Moreover, these compounds were tested for any possible side effects on the central nervous system.
1. In vitro tests: inhibition of blood platelet aggregation
In order to determine the PAF-antagonistic activity of substances, the PAF-induced aggregation of human thrombocytes in vitro was used. In order to obtain thrombocyte-rich plasma (TRP) blood was taken from an unconstricted vein using a plastic syringe containing 3.8% of sodium citrate solution. The ratio of sodium citrate solution to blood was 1:9. After careful mixing, the citrated blood was centrifuged for 20 minutes at 150×g (1200 rpm). The thrombocyte aggregation was measured using the method developed by Born and Cross (G. V. R. Born and M. J. Cross, J. Physiol. 168, 178 (1963)), in which PAF is added to the TRP with constant stirring in order to initiate aggregation.
The test substance is added 2 to 3 minutes before aggregation is induced, in a volume of 10 μl. The solvent used is either distilled water, ethanol and/or dimethylsulphoxide. The controls were given corresponding volumes of this solvent. After the initial absorption had been recorded (2 to 3 minutes) aggregation was induced with PAF (5×10^-8 M).
The maximum of the first aggregation wave is used to assess the effects of the substance. The PAF-induced maximum absorption rate (=maximum aggregation×100%) is simultaneously tested in a parallel mixture (=control mixture in one of the channels of the 2-channel aggregometer) with each test batch (second channel) and is used as the 100% value.
The level of aggregation achieved under the effect of the […] is given […].
Each test substance is tested at concentrations of from 10^-3 to 10^-8 M with a random sampling range of n=4 in order to investigate an inhibiting effect on the PAF-induced thrombocyte aggregation. A concentration-activity curve is then plotted using 3 concentrations and the IC50 is determined (concentration for a 50% inhibition of aggregation). The IC values of compounds of general formula I are generally around levels of less than 9 μM.

SMILES | IC50 [µM]
Cc1nnc2n1-c1ccc(Cl)cc1C(c1ccccc1Cl)=NC2 [Triazolam, triazolam, reference compound] | 9

Same assay, conditions: PAF-induced aggregation, read-out: IC50 (concentration for a 50% inhibition of aggregation)

SMILES | IC50 [µM]
Cc1nnc2n1-c1ccc(Cl)cc1C(c1ccccc1)=NC2 [Alprazolam, alprazolam, reference compound] | 14

Same assay, conditions: Platelet, Table A, PAF 5×10^-8 M, human thrombocyte-rich plasma, read-out: IC50 (inhibition of blood platelets)

SMILES | IC50 [µM]
Cc1nnc2n1-c1ccc(Cl)cc1C(c1ccccc1Cl)=NC2 [Triazolam, triazolam, reference compound] | 9
Cc1nnc2n1-c1sc(CCS(=O)(=O)N3CCOCC3)cc1C(c1ccccc1Cl)=NC2 [Example 20] | 0.3
Cc1nnc2n1-c1sc(CCCN3CCOCC3)cc1C(c1ccccc1Cl)=NC2 [Example 11, 2-(3-(N-Morpholinyl)propyl)-4-(2-chlorophenyl)-9-methyl-6H-thieno[3,2-f][1,2,4]triazolo[4,3-a][1.4]-diazepine] | < 0.2
Cc1nnc2n1-c1sc(CCCCCCCNCCN(C)C)cc1C(c1ccccc1Cl)=NC2 [Example 60] | 0.9
Cc1nnc2n1-c1sc(CCCNCCN3CCOCC3)cc1C(c1ccccc1Cl)=NC2 [Example 75] | 1.9
CC(=O)OCCCc1cc2c(s1)-n1cnnc1CN=C2c1ccccc1Cl [Example 50] | 0.6
CC(=O)OCCCc1cc2c(s1)-n1c(C)nnc1CN=C2c1ccccc1Cl [Example 2, 3-[4-(2-Chlorophenyl)-9-methyl-6H-thieno[3,2-f][1,2,4]triazolo[4,3-a][1,4]diazepin-2-yl]propyl acetate] | < 0.2
Cc1nnc2n1-c1sc(CCCCCCCOC(=O)C(C)(C)C)cc1C(c1ccccc1Cl)=NC2 [Example 27] | 0.2
Cc1nnc2n1-c1sc(CCCCCCC=O)cc1C(c1ccccc1Cl)=NC2 [Example 12, 2-(6-Formylhexyl)-4-(2-chlorophenyl)-9-methyl-6H-thieno[3,2-f][1,2,4]triazolo[4,3-a][1,4]diazepine] | 0.3
Cc1nnc2n1-c1sc(CCCCCCCOS(C)(=O)=O)cc1C(c1ccccc1Cl)=NC2 [Example 23] | 0.9
CC(=O)NCCCCCCCc1cc2c(s1)-n1c(C)nnc1CN=C2c1ccccc1Cl [Example 10, 2-(7-Acetylaminoheptyl)-4-(2-chlorophenyl)-9-methyl-6H-thieno[3,2-f][1,2,4]triazolo[4,3-a][1,4]diazepine] | 1.7
Cc1nnc2n1-c1sc(CCCN3CCCCC3)cc1C(c1ccccc1Cl)=NC2 [Example 45] | 0.3
CC(=O)OCCCc1cc2c(s1)-n1c(Br)nnc1CN=C2c1ccccc1Cl [Example 13, 2-(3-Acetoxypropyl)-4-(2-chlorophenyl)-9-bromo-6H-thieno[3,2-f][1,2,4]triazolo[4,3-a][1,4]diazepine] | 0.3
CCN(CC)CCCc1cc2c(s1)-n1c(C)nnc1CN=C2c1ccccc1Cl [Example 71] | 0.9
Cc1nnc2n1-c1sc(CCCn3cncn3)cc1C(c1ccccc1Cl)=NC2 [Example 64] | < 0.2
Cc1nnc2n1-c1sc(CCCO)cc1C(c1ccccc1Cl)NC2 (stereo not shown) [Example 98] | 2.3
Cc1nnc2n1-c1sc(CCCN3CCOCC3)cc1C(c1ccccc1Cl)NC2 (stereo not shown) [Example 14l, 2-[3-(N-Morpholinyl)-n-propyl]-4-(2-chlorophenyl)-9-methyl-4,5-dihydro-6H-thieno[3,2-f][1,2,4]triazolo-[4,3-a][1,4]diazepine] | 0.6
Cc1nnc2n1-c1sc(CCCN3CCOCC3)cc1C(c1ccccc1)=NC2 [Example 54] | 1.1
Cc1nnc2n1-c1sc(CCCCCCCN3CCN(C)CC3)cc1C(c1ccccc1Cl)=NC2 [Example 49] | 1
Cc1nnc2n1-c1sc(CCCCCCCN3C(=O)c4ccccc4C3=O)cc1C(c1ccccc1Cl)=NC2 [Example 8, 2-(7-N-Phthalimidoheptyl)-4-(2-chlorophenyl)-9-methyl-6H-thieno[3,2-f][1,2,4]triazolo[4,3-a][1,4]-diazepine] | < 0.3
Cc1nnc2n1-c1sc(CC(C)C(=O)N3CCOCC3)cc1C(c1ccccc1Cl)=NC2 (stereo not shown) [Example 14i, 2-[2-(Morpholin-4-yl-carbonyl)-n-propyl]-4-(2-chlorophenyl)-9-methyl-6H-thieno[3,2-f][1,2,4]triazolo[4,3-a][1,4]diazepine] | 0.4
CC(=O)OCCCc1cc2c(s1)-n1c(C)cnc1CN=C2c1ccccc1Cl [Example 56] | 0.3
CC(=O)OCCCCCCCc1cc2c(s1)-n1c(C)nnc1CN=C2c1ccccc1Cl [Example 4, 7-[4-(2-Chlorophenyl)-9-methyl-6H-thieno[3,2-f][1,2,4]triazolo[4,3-a][1,4]diazepin-2-yl]heptyl acetate] | < 0.2
CC(=O)OCCCCCCCc1cc2c(s1)-n1c(C)cnc1CN=C2c1ccccc1Cl [Example 58] | < 0.2
Cc1nnc2n1-c1sc(CCCCCCCN)cc1C(c1ccccc1Cl)=NC2 [Example 9, 2-(7-Amino-heptyl)-4-(2-chlorophenyl)-9-methyl-6H-thieno[3,2-f][1,2,4]triazolo[4,3-a][1,4]diazepine] | 0.2
Cc1nnc2n1-c1sc(CCS(=O)(=O)N3CCN(C)CC3)cc1C(c1ccccc1Cl)=NC2 [Example 1, 2-[4-(2-Chlorophenyl)-9-methyl-6H-thieno[3,2-f][1,2,4]triazolo[4,3-a][1,4]diazepin-2-yl]-ethane-1-sulphonic acid-N'-methylpiperazide] | 0.3
Cc1nnc2n1-c1sc(CCCOC(=O)C(C)(C)C)cc1C(c1ccccc1Cl)=NC2 [Example 25] | 0.9

Same assay, conditions: Table A, PAF 5×10^-8 M, human thrombocyte-rich plasma, read-out: IC50 (inhibition of blood platelets)

SMILES | IC50 [µM]
Cc1nnc2n1-c1ccc(Cl)cc1C(c1ccccc1)=NC2 [Alprazolam, alprazolam, reference compound] | 14

Test system: not given
Assay: not given
Details: commercially available tranquillisers or hypnotics; cited from earlier work

SMILES | sedative effect of known benzodiazepines
Cc1nnc2n1-c1ccc(Cl)cc1C(c1ccccc1Cl)=NC2 [Triazolam, triazolam, reference compound] | marked sedative effect
